The nature of one data set: Aqueous solubility. The data set is classed as physicochemical. To be noted: for solubility: aqueous.
Where [1] appears, read: pH 7, aqueous buffer, pH 7, read-out: Aqueous solubility at pH 7.

This note sets out measurements from patent publication US8288416B2, “Substituted piperidinophenyl oxazolidinones” (Wockhardt Ltd., priority 2006, dated 2012).

Molecules are shown by their SMILES. Structures can show the parent of a compound that is named as a salt. Where two headings read alike, the source gives them in different places.

As for `COCC1(OC(=O)C(C)N)CCN(c2c(F)cc(N3C[C@H](CNC(C)=O)OC3=O)cc2F)CC1.Cl` (stereo partly drawn) [Example 14, 2-Amino-propionic acid 1-{4-[(S)-5-(acetylamino-methyl)-2-oxo-oxazolidin-3-yl]-2,6-difluorophenyl}-4-methoxymethyl-piperidin-4-yl ester hydrochloride salt], the solubility (as a rule, the concentration that dissolves in the medium under given conditions) in the data set “Aqueous solubility” (setting [1]) was greater than 100 mg/mL.

`COCC1(OC(=O)CN)CCN(c2c(F)cc(N3C[C@H](CNC(C)=O)OC3=O)cc2F)CC1.Cl` [Example 11, 2-Amino-acetic acid 1-{4-[(S)-5-(acetylamino-methyl)-2-oxo-oxazolidin-3-yl]-2,6-difluorophenyl}-4-methoxymethyl-piperidin-4-yl ester hydrochloride salt]: the solubility in the data set “Aqueous solubility” (setting [1]) is greater than 100 mg/mL.

Regarding `COCC1(OC(=O)CN)CCN(c2c(F)cc(N3C[C@H](CNC(C)=O)OC3=O)cc2F)CC1.O=C(O)C(F)(F)F` [Example 12, 2-Amino-acetic acid 1-{4-[(S)-5-(acetylamino-methyl)-2-oxo-oxazolidin-3-yl]-2,6-difluorophenyl}-4-methoxymethyl-piperidin-4-yl ester triflouroacetic acid salt], the Aqueous solubility (commonly the concentration that dissolves in the medium under given conditions) at pH 7 in the data set “Aqueous solubility” (pH 7) is given as greater than 100 mg/ml.

Take `COCC1(C(=O)[C@H](C)NC(=O)OC(C)(C)C)CCN(c2c(F)cc(N3C[C@H](CNC(C)=O)OC3=O)cc2F)CC1` [Example 13, (S)—N-{3-[3,5-difluoro-4-(4-(S)-2-tert-butoxycarbonylamino-propionyl-4-methoxymethyl-piperidine-1-yl)phenyl]-2-oxo-oxazolidin-5-ylmethyl}-acetamide]: in “Aqueous solubility” (pH 7), the “Aqueous solubility at pH 7” value is on record as greater than 100 mg/ml.

For `COCC1(OP(=O)(O)O)CCN(c2c(F)cc(N3C[C@H](CNC(C)=O)OC3=O)cc2F)CC1` [Example 5, Phosphoric acid mono-(1-{4-[(S)-5-(acetylamino-methyl)-2-oxo-oxazolidin-3-yl]-2,6-difluoro-phenyl}-4-methoxymethyl-piperidin-4-yl)ester di potassium salt], the “Aqueous solubility at pH 7” value in “Aqueous solubility” (pH 7, di potassium salt) is greater than 200 mg/ml.

Consider `COCC1(OP(=O)([O-])[O-])CCN(c2c(F)cc(N3C[C@H](CNC(C)=O)OC3=O)cc2F)CC1.[Ca+2]` [Example 7, Phosphoric acid mono-(1-{4-[(S)-5-(acetylamino-methyl)-2-oxo-oxazolidin-3-yl]-2,6-difluoro-phenyl}-4-methoxymethyl-piperidin-4-yl)ester calcium salt], for which the solubility in “Aqueous solubility” (setting [1]) is roughly 0.5 mg/mL.

For the molecule `COCC1(C(=O)[C@@H](NC(=O)OCc2ccccc2)C(C)C)CCN(c2c(F)cc(N3C[C@H](CNC(C)=O)OC3=O)cc2F)CC1` [Example 16, (S)—N-{3-[3,5-Difluoro-4-(4-(S)-2-carbobenzyloxyamino-3,3-dimethylpropionyl-4-methoxymethyl-piperidine-1-yl)phenyl]-2-oxo-oxazolidin-5-ylmethyl}-acetamide], the “Aqueous solubility at pH 7” value in “Aqueous solubility” (pH 7) is given as greater than 100 mg/ml.

Take `COCC1(OP(=O)(O)O)CCN(c2c(F)cc(N3C[C@H](CNC(C)=O)OC3=O)cc2F)CC1` [Example 4, Phosphoric acid mono-(1-{4-[(S)-5-(acetylamino-methyl)-2-oxo-oxazolidin-3-yl]-2,6-difluoro-phenyl}-4-methoxymethyl-piperidin-4-yl)ester di sodium salt]: the “Aqueous solubility at pH 7” value in “Aqueous solubility” (pH 7, di sodium salt) is reported as greater than 200 mg/ml.

Take `COCC1(OP(=O)(O)O)CCN(c2c(F)cc(N3C[C@H](CNC(C)=O)OC3=O)cc2F)CC1` [Example 3, Phosphoric acid mono-(1-{4-[(S)-5-(acetylamino-methyl)-2-oxo-oxazolidin-3-yl]-2,6-difluorophenyl}-4-methoxymethyl-piperidin-4-yl)ester]: the melting point – broadly, the temperature of the solid-liquid transition – is greater than 140 °C. Further, the solubility in the data set “Aqueous solubility” (pH not stated, read-out: Aqueous solubility) is greater than 200 mg/mL.

Regarding `COCC1(OP(=O)(O)O)CCN(c2c(F)cc(N3C[C@H](CNC(C)=O)OC3=O)cc2F)CC1` [Example 6, Phosphoric acid mono-(1-{4-[(S)-5-(acetylamino-methyl)-2-oxo-oxazolidin-3-yl]-2,6-difluoro-phenyl}-4-methoxymethyl-piperidin-4-yl)ester magnesium salt], the “Aqueous solubility at pH 7” value in “Aqueous solubility” (pH 7) is roughly 2 mg/ml.

`COCC1(OC(=O)C(N)C(C)C)CCN(c2c(F)cc(N3C[C@H](CNC(C)=O)OC3=O)cc2F)CC1.CS(=O)(=O)O` (stereo partly drawn) [Example 17, 2-Amino-3,3-dimethylpropionic acid 1-{4-[(S)-5-(acetylamino-methyl)-2-oxo-oxazolidin-3-yl]-2,6-difluorophenyl}-4-methoxymethyl-piperidin-4-yl ester methane sulfonic acid salt]: the solubility in the data set “Aqueous solubility” (pH 7, aqueous buffer, read-out: Aqueous solubility at pH 7) was greater than 100 mg/mL.

On to `COCC1(OC(=O)C(C)N)CCN(c2c(F)cc(N3C[C@H](CNC(C)=O)OC3=O)cc2F)CC1.O=C(O)C(F)(F)F` (stereo partly drawn) [Example 15, 2-Amino-propionic acid 1-{4-[(S)-5-(acetylamino-methyl)-2-oxo-oxazolidin-3-yl]-2,6-difluorophenyl}-4-methoxymethyl-piperidin-4-yl ester triflouroacetic acid salt], for which the “Aqueous solubility at pH 7” value in the data set “Aqueous solubility” (pH 7) is recorded as greater than 100 mg/ml.
